From patent US10004701B2, “Methods and compositions for treating infection” (UNIVERSITY OF ROCHESTER, priority 2012, dated 2018)
Where a name gives a salt, the structure may show the parent alone. Read-outs that look alike come from different tables or passages of the source.

Key:
Experiment in all cases: AK assay 384-well format, Prestwick library screening
E. coli = assay type: cell-based, Escherichia coli; settings: Escherichia coli, 3 h, 50 μM final drug concentration
[1] = tested on: S. aureus strain USA300-0114; assay type: cell-based, Staphylococcus aureus; settings: Staphylococcus aureus, USA300, 3 h, 50 μM final drug concentration
P. aeruginosa = assay type: cell-based, Pseudomonas aeruginosa; settings: Pseudomonas aeruginosa, 3 h, 50 μM final drug concentration
E. cloacae = assay type: cell-based, Enterobacter cloacae; settings: Enterobacter cloacae, 3 h, 50 μM final drug concentration
E. faecium = assay type: cell-based, Enterococcus faecium; settings: Enterococcus faecium, 3 h, 50 μM final drug concentration
[2] = tested on: A. baumannii strain 98-37-09; assay type: cell-based, Acinetobacter baumannii; settings: Acinetobacter baumannii, 983709, 3 h, 50 μM final drug concentration
K. pneumoniae = assay type: cell-based, Klebsiella pneumoniae; settings: Klebsiella pneumoniae, 3 h, 50 μM final drug concentration
[3] = planktonic, cutoff for positive-scoring molecules 3-fold increase, read-out: AK-based Prestwick Library Screening Results, E. coli (fold increase in extracellular AK activity)
[4] = planktonic, cutoff for positive-scoring molecules 3-fold increase, read-out: AK-based Prestwick Library Screening Results, S. aureus (fold increase in extracellular AK activity)
[5] = planktonic, cutoff for positive-scoring molecules 3-fold increase, read-out: AK-based Prestwick Library Screening Results, P. aeruginosa (fold increase in extracellular AK activity)
[6] = planktonic, cutoff for positive-scoring molecules 3-fold increase, read-out: AK-based Prestwick Library Screening Results, E. cloacae (fold increase in extracellular AK activity)
[7] = planktonic, cutoff for positive-scoring molecules 3-fold increase, read-out: AK-based Prestwick Library Screening Results, E. faecium (fold increase in extracellular AK activity)
[8] = planktonic, cutoff for positive-scoring molecules 3-fold increase, read-out: AK-based Prestwick Library Screening Results, A. baumannii (fold increase in extracellular AK activity)
[9] = planktonic, cutoff for positive-scoring molecules 3-fold increase, read-out: AK-based Prestwick Library Screening Results, K. pneumoniae (fold increase in extracellular AK activity)
[10] = cutoff for positive-scoring molecules 3-fold increase, read-out: AK-based Prestwick Library Screening Results, E. coli (fold increase in extracellular AK activity)
[11] = cutoff for positive-scoring molecules 3-fold increase, read-out: AK-based Prestwick Library Screening Results, S. aureus (fold increase in extracellular AK activity)
[12] = cutoff for positive-scoring molecules 3-fold increase, read-out: AK-based Prestwick Library Screening Results, P. aeruginosa (fold increase in extracellular AK activity)
[13] = cutoff for positive-scoring molecules 3-fold increase, read-out: AK-based Prestwick Library Screening Results, E. cloacae (fold increase in extracellular AK activity)
[14] = cutoff for positive-scoring molecules 3-fold increase, read-out: AK-based Prestwick Library Screening Results, E. faecium (fold increase in extracellular AK activity)
[15] = cutoff for positive-scoring molecules 3-fold increase, read-out: AK-based Prestwick Library Screening Results, A. baumannii (fold increase in extracellular AK activity)
[16] = cutoff for positive-scoring molecules 3-fold increase, read-out: AK-based Prestwick Library Screening Results, K. pneumoniae (fold increase in extracellular AK activity)

Compound | fold induction at 50 µM (E. coli; [3]) | fold induction at 50 µM [1, 4] | fold induction at 50 µM (P. aeruginosa; [5]) | fold induction at 50 µM (E. cloacae; [6]) | fold induction at 50 µM (E. faecium; [7]) | fold induction at 50 µM [2, 8] | fold induction at 50 µM (K. pneumoniae; [9]) | fold induction at 50 µM (E. coli; [10]) | fold induction at 50 µM [1, 11] | fold induction at 50 µM (P. aeruginosa; [12]) | fold induction at 50 µM (E. cloacae; [13]) | fold induction at 50 µM (E. faecium; [14]) | fold induction at 50 µM [2, 15] | fold induction at 50 µM (K. pneumoniae; [16]) | further results
O=c1cc(-c2ccccc2)oc2cc(O)cc(O)c12 [Chrysin] | 0.2 | 0.2 | 0.1 | 0.6 | 0.3 | 0.2 | 0.2 | – | – | – | – | – | – | – | –
CC(=O)c1ccc2c(c1)N(CCCN1CCC(CCO)CC1)c1ccccc1S2 [Piperacetazine] | – | – | – | – | – | – | – | 0.5 | 0.5 | 0.5 | 0.4 | 0.9 | 0.6 | 0.5 | –
CN(C)CC/C=C1\c2ccccc2CSc2ccccc21 [Dosulepin hydrochloride] | – | – | – | – | – | – | – | – | – | – | – | – | – | – | fold induction at 50 µM (E. coli; planktonic E. coli, cutoff for positive-scoring molecules 3-fold increase, read-out: AK-based Prestwick Library Screening Results, E. coli (increase in extracellular AK activity)): 0.6; fold induction at 50 µM ([1]; planktonic S. aureus, cutoff for positive-scoring molecules 3-fold increase, read-out: AK-based Prestwick Library Screening Results, S. aureus (increase in extracellular AK activity)): 0.5; fold induction at 50 µM (P. aeruginosa; planktonic P. aeruginosa, cutoff for positive-scoring molecules 3-fold increase, read-out: AK-based Prestwick Library Screening Results, P. aeruginosa (increase in extracellular AK activity)): 0.5; fold induction at 50 µM (E. cloacae; planktonic E. cloacae, cutoff for positive-scoring molecules 3-fold increase, read-out: AK-based Prestwick Library Screening Results, E. cloacae (increase in extracellular AK activity)): 0.5; fold induction at 50 µM (E. faecium; planktonic E. faecium, cutoff for positive-scoring molecules 3-fold increase, read-out: AK-based Prestwick Library Screening Results, E. faecium (increase in extracellular AK activity)): 0.9; fold induction at 50 µM ([2]; planktonic A. baumannii, cutoff for positive-scoring molecules 3-fold increase, read-out: AK-based Prestwick Library Screening Results, A. baumannii (increase in extracellular AK activity)): 0.5; fold induction at 50 µM (K. pneumoniae; planktonic K. pneumoniae, cutoff for positive-scoring molecules 3-fold increase, read-out: AK-based Prestwick Library Screening Results, K. pneumoniae (increase in extracellular AK activity)): 0.5
Nc1ccc(S(=O)(=O)NC(=O)c2ccccc2)cc1 [Sulfabenzamide] | – | – | – | – | – | – | – | 1.1 | 1.2 | 1.1 | 1.6 | 1.1 | 2.8 | 1.1 | –
C[C@]12CC[C@H](O)C[C@H]1CC[C@@H]1[C@@H]2CC[C@]2(C)[C@@H](C3=CC(=O)OC3)CC[C@]12O [Digitoxigenin] | – | – | – | – | – | – | – | – | – | – | – | – | – | – | fold induction at 50 µM (E. coli; planktonic E. coli, […], read-out: AK-based Prestwick Library Screening Results, E. coli (increase in extracellular AK activity)): 0.9; fold induction at 50 µM ([1]; planktonic S. aureus, […], read-out: AK-based Prestwick Library Screening Results, S. aureus (increase in extracellular AK activity)): 0.6; fold induction at 50 µM (P. aeruginosa; planktonic P. aeruginosa, […], read-out: AK-based Prestwick Library Screening Results, P. aeruginosa (increase in extracellular AK activity)): 0.8; fold induction at 50 µM (E. cloacae; planktonic E. cloacae, […], read-out: AK-based Prestwick Library Screening Results, E. cloacae (increase in extracellular AK activity)): 1.2; fold induction at 50 µM (E. faecium; planktonic E. faecium, […], read-out: AK-based Prestwick Library Screening Results, E. faecium (increase in extracellular AK activity)): 0.9; fold induction at 50 µM ([2]; planktonic A. baumannii, […], read-out: AK-based Prestwick Library Screening Results, A. baumannii (increase in extracellular AK activity)): 0.8; fold induction at 50 µM (K. pneumoniae; planktonic K. pneumoniae, […], read-out: AK-based Prestwick Library Screening Results, K. pneumoniae (increase in extracellular AK activity)): 0.7
CC(C)(C)C(=O)OCOC(=O)[C@@H]1N2C(=O)[C@@H](/N=C/N3CCCCCC3)[C@H]2SC1(C)C [Pivmecillinam hydrochloride] | – | – | – | – | – | – | – | 7.7 | 0.6 | 0.6 | 0.8 | 0.9 | 1.1 | 0.5 | –
CC(C)(Sc1cc(C(C)(C)C)c(O)c(C(C)(C)C)c1)Sc1cc(C(C)(C)C)c(O)c(C(C)(C)C)c1 [Probucol] | – | – | – | – | – | – | – | – | – | – | – | – | – | – | fold induction at 50 µM (E. coli; planktonic, cutoff for positive 3-fold increase, read-out: AK-based Prestwick Library Screening Results, E. coli (fold increase in extracellular AK activity)): 1.1; fold induction at 50 µM ([1]; planktonic, cutoff for positive 3-fold increase, read-out: AK-based Prestwick Library Screening Results, S. aureus (fold increase in extracellular AK activity)): 0.6; fold induction at 50 µM (P. aeruginosa; planktonic, cutoff for positive 3-fold increase, read-out: AK-based Prestwick Library Screening Results, P. aeruginosa (fold increase in extracellular AK activity)): 1.1; fold induction at 50 µM (E. cloacae; planktonic, cutoff for positive 3-fold increase, read-out: AK-based Prestwick Library Screening Results, E. cloacae (fold increase in extracellular AK activity)): 1.3; fold induction at 50 µM (E. faecium; planktonic, cutoff for positive 3-fold increase, read-out: AK-based Prestwick Library Screening Results, E. faecium (fold increase in extracellular AK activity)): 0.9; fold induction at 50 µM ([2]; planktonic, cutoff for positive 3-fold increase, read-out: AK-based Prestwick Library Screening Results, A. baumannii (fold increase in extracellular AK activity)): 1.4; fold induction at 50 µM (K. pneumoniae; planktonic, cutoff for positive 3-fold increase, read-out: AK-based Prestwick Library Screening Results, K. pneumoniae (fold increase in extracellular AK activity)): 0.9
Cn1c(=O)c2[nH]cnc2n(C)c1=O [Aminophylline] | 0.6 | 0.6 | 0.8 | 0.8 | 0.9 | 0.7 | 0.6 | – | – | – | – | – | – | – | –
CCC(=O)OCC(=O)[C@@]1(OC(=O)CC)[C@H](C)C[C@H]2[C@H]3[C@H]([C@@H](O)C[C@@]21C)[C@@]1(C)C=CC(=O)C=C1C[C@H]3Cl [Alclometasone dipropionate] | – | – | – | – | – | – | – | – | – | – | – | – | – | – | fold induction at 50 µM (E. coli; […], read-out: AK-based Prestwick Library Screening Results, E. coli (fold increase in extracellular AK activity)): 1.1; fold induction at 50 µM ([1]; […], read-out: AK-based Prestwick Library Screening Results, S. aureus (fold increase in extracellular AK activity)): 1.1; fold induction at 50 µM (P. aeruginosa; […], read-out: AK-based Prestwick Library Screening Results, P. aeruginosa (fold increase in extracellular AK activity)): 1; fold induction at 50 µM (E. cloacae; […], read-out: AK-based Prestwick Library Screening Results, E. cloacae (fold increase in extracellular AK activity)): 1.2; fold induction at 50 µM (E. faecium; […], read-out: AK-based Prestwick Library Screening Results, E. faecium (fold increase in extracellular AK activity)): 1; fold induction at 50 µM ([2]; […], read-out: AK-based Prestwick Library Screening Results, A. baumannii (fold increase in extracellular AK activity)): 0.9; fold induction at 50 µM (K. pneumoniae; […], read-out: AK-based Prestwick Library Screening Results, K. pneumoniae (fold increase in extracellular AK activity)): 1.1
O=C(O)Cc1ccc(-c2ccccc2)cc1 [Felbinac] | 0.7 | 0.6 | 0.7 | 1 | 0.9 | 0.8 | 0.6 | – | – | – | – | – | – | – | –
